Reference: US20240336938A1, “COMPOSITIONS AND METHODS FOR EFFECTIVE DELIVERY OF POLYNUCLEOTIDES TO CELLS” (WUHAN UNIVERSITY, priority 2021, published 2024)

What was measured:
[1] = test system: STING; experiment: STING inhibitor pretreatment of T cells before DNA electroporation; type: cell-based, human
[2] = test system: STING; experiment: STING inhibitor pretreatment of THP-1 cells before HSV-1 stimulation, qPCR; type: cell-based, human; conditions: THP1 cells, indicated doses

CCc1ccc(NC(=O)Nc2c[nH]c3ccccc23)cc1 [H151]
IFNβ and ISG56 expression in DNA transfected T cells under inhibitor ([1]; 1 μM pretreatment, qPCR): upregulated
rescue of DNA-induced cell death ([1]; 1 μM, 16 h pretreatment, cell number 72 h post-EP): failed to rescue DNA-induced cell death
ISG56 and IFN-β response to HSV-1 [2]: positive dose-response
